These results are taken from paper PMC2211469, “Viroporin potential of the lentivirus lytic peptide (LLP) domains of the HIV-1 gp41 protein” (Virology Journal, 2007).

The experiment is described as follows: Tb3+/DPA microwell plate leakage assay. Conditions: positive control, complete dissolution of membranes. The procedure:
The Tb^3+/DPA assay, a high throughput leakage assay developed by Rausch and Wimley, 2001, was employed in order to determine each LLP peptide's ability to disturb lipid membrane integrity. […] To this end, Tb^3+ was entrapped in Large Unilamellar Vesicles composed of 10% POPG: 90% POPC diluted in a KPO4 buffer containing DPA. Only upon membrane disruption was terbium able to come into contact with DPA in the buffer generating a fluorescent complex. Various ratios of peptide:lipid were incubated together in a microwell plate and the resulting fluorescence emissions were monitored under UV irradiation. LLP -1, -2, and -1D peptides used in this study were not NBD labeled, but were N-terminally labeled with a tryptophan residue for quantification.
To prepare Tb^3+ LUVs, lipids were resuspended to 100 mM concentration in 50 mM Tb^3+, 100 mM sodium citrate, 10 mM TES pH 7.2. Gel Filtration on Sephadex G-200 was used to elute LUVs and remove unencapsulated Tb^3+ in a buffer of 10 mM TES and 325 mM NaCl. Final lipid concentrations were determined by phosphate analysis. […] Finally, samples were heated in a water bath with AmMo and ascorbic acid for 10–15 minutes and absorbance at 660 nm was measured. Concentrations were determined by comparison to a standard curve generated using known KPO4 concentrations. […]

Triton X-100 had a leakage of vesicles of 100%.
